Assay results published in patent publication US8703701B2 (Indiana University Research and Technology Corporation, priority 2009, dated 2014).
Each block holds one molecule with its values, some of them ahead of it. Starred links: 1 amine or outer side, 2 acyl side, 3 side chain; linkers in the order of their positions; H or OH if unused. Non-standard residues stand in square brackets, D forms with d. Residues, ends and D or L forms follow the SMILES beside them. Groups on a side chain read outwards from the residue. No end group written: not given here. *: point of attachment. Isobutyryl(2-imidazol-4-yl) = CC(C)(C(=O)*)c1c[nH]cn1; γGlu = O=C(O)[C@H](CCC(=O)[*:2])N[*:1]; Palmitoyl = CCCCCCCCCCCCCCCC(=O)*; Aib = CC(C)(N)C(=O)O

Key:
glucagon receptor = biological target: T1, glucagon receptor (Homo sapiens, UniProt P47871); experiment: cAMP induction, firefly luciferase reporter assay, glucagon receptor; format: cell-based; conditions: for Activity at Glucagon Receptor % Relative Activity: compared to native glucagon
T1 construct: expressed in transfected cells; host or cells: HEK293
Protocol: (§1) The ability of each peptide to induce cAMP was measured in a firefly luciferase-based reporter assay.
(§2) At the end of the incubation, 100 μL of LucLite luminescence substrate reagent (Perkin Elmer, Wellesley, Mass.) were added to each well. The plate was shaken briefly, incubated 10 min in the dark and light output was measured on MicroBeta-1450 liquid scintillation counter (Perkin-Elmer, Wellesley, Mass.).

GLP-1 receptor = biological target: T2, GLP-1 receptor (Homo sapiens, UniProt P43220); experiment: cAMP induction, firefly luciferase reporter assay, GLP-1 receptor; format: cell-based; conditions: for Activity at GLP-1 Receptor % Relative Activity: compared to native GLP-1
T2 construct: expressed in transfected cells; host or cells: HEK293
Protocol: as §1, §2

[1] = Activity at GLP-1 Receptor EC50 [nM], Table 3C

T1 sequence (P47871 26-477): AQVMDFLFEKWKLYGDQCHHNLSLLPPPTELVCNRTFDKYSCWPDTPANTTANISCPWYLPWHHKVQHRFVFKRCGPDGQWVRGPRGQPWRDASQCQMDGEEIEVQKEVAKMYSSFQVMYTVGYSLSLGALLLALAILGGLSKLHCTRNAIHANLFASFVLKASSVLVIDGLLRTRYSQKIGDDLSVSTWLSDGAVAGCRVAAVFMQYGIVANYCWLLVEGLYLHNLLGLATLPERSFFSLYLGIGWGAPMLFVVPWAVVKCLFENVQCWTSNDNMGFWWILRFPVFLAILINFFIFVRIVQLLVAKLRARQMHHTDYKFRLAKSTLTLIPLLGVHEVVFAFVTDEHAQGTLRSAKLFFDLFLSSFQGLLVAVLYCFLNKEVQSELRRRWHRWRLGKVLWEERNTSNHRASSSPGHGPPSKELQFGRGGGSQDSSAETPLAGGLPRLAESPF
T2 sequence (P43220 24-463): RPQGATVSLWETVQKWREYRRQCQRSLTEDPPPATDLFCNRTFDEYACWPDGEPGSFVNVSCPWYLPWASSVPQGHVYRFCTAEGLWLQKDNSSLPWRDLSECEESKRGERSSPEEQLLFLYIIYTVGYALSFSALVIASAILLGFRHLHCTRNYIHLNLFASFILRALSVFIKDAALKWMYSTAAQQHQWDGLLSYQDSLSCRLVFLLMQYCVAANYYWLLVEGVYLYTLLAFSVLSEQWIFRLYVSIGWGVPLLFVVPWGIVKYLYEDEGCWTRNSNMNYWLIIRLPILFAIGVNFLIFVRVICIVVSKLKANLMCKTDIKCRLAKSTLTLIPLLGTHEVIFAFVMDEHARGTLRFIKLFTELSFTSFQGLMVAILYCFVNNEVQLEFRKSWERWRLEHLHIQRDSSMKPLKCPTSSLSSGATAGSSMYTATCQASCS

Molecule: CCCCCCCCCCCCCCCC(=O)N[C@@H](CCC(=O)NCCCC[C@H](NC(=O)[C@H](CC(=O)O)NC(=O)[C@H](CO)NC(=O)[C@@H](NC(=O)[C@H](Cc1ccccc1)NC(=O)[C@@H](NC(=O)CNC(=O)[C@H](CCC(N)=O)NC(=O)[C@@H](CO)NC(=O)[C@@H](N)Cc1c[nH]cn1)[C@@H](C)O)[C@@H](C)O)C(=O)N[C@@H](CO)C(=O)N[C@@H](CCCCN)C(=O)N[C@@H](Cc1ccc(O)cc1)C(=O)N[C@@H](CC(C)C)C(=O)N[C@@H](CC(=O)O)C(=O)N[C@@H](CCC(=O)O)C(=O)N[C@@H](CCC(N)=O)C(=O)N[C@@H](C)C(=O)N[C@@H](C)C(=O)N[C@@H](CCCCN)C(=O)N[C@@H](CCC(=O)O)C(=O)N[C@@H](Cc1ccccc1)C(=O)N[C@H](C(=O)N[C@@H](CS)C(=O)N[C@@H](Cc1c[nH]c2ccccc12)C(=O)N[C@@H](CC(C)C)C(=O)N[C@@H](CC(C)C)C(=O)N[C@@H](CC(=O)O)C(=O)N[C@@H](CCC(=O)O)C(N)=O)[C@@H](C)CC)C(=O)O [compound 82] (H-H[dS]QGTFTSDK([γGlu-Palmitoyl])SKYLDEQAAKEFICWLLDE-NH2; N-terminus assumed)
Activity at Glucagon Receptor % Relative Activity (glucagon receptor; Table 3C): 121% | EC50 (GLP-1 receptor; [1]): 0.02 nM | Activity at GLP-1 Receptor % Relative Activity (GLP-1 receptor; Table 3C): 345%

Molecule: CCCCCCCCCCCCCCCC(=O)N[C@@H](CCC(=O)NCCCC[C@H](NC(=O)[C@H](CC(=O)O)NC(=O)[C@H](CO)NC(=O)[C@@H](NC(=O)[C@H](Cc1ccccc1)NC(=O)[C@@H](NC(=O)CNC(=O)[C@H](CCC(N)=O)NC(=O)[C@@H](CO)NC(=O)[C@@H](N)Cc1c[nH]cn1)[C@@H](C)O)[C@@H](C)O)C(=O)N[C@@H](CO)C(=O)N[C@@H](CCCCN)C(=O)N[C@@H](Cc1ccc(O)cc1)C(=O)N[C@@H](CC(C)C)C(=O)N[C@@H](CC(=O)O)C(=O)N[C@@H](CCC(=O)O)C(=O)N[C@@H](CCC(N)=O)C(=O)N[C@@H](C)C(=O)N[C@@H](C)C(=O)N[C@@H](CCCCN)C(=O)N[C@@H](CCC(=O)O)C(=O)N[C@@H](Cc1ccccc1)C(=O)N[C@H](C(=O)N[C@@H](CS)C(=O)N[C@@H](Cc1c[nH]c2ccccc12)C(=O)N[C@@H](CC(C)C)C(=O)N[C@@H](CC(C)C)C(=O)N[C@@H](CC(=O)O)C(=O)N[C@H](C(N)=O)[C@@H](C)O)[C@@H](C)CC)C(=O)O [compound 53]
Activity at Glucagon Receptor % Relative Activity (glucagon receptor; Table 5): 411% | Activity at GLP-1 Receptor % Relative Activity (GLP-1 receptor; Table 5): 708%

Molecule: CC(C)C[C@H](NC(=O)[C@H](CC(C)C)NC(=O)[C@H](Cc1c[nH]c2ccccc12)NC(=O)[C@H](CS)NC(=O)[C@@H](NC(=O)[C@H](Cc1ccccc1)NC(=O)[C@H](CCC(=O)O)NC(=O)[C@H](CCCCN)NC(=O)[C@H](C)NC(=O)[C@H](CCCNC(=N)N)NC(=O)[C@H](CCCCN)NC(=O)[C@H](CCC(=O)O)NC(=O)[C@H](CC(=O)O)NC(=O)[C@H](CC(C)C)NC(=O)[C@H](Cc1ccc(O)cc1)NC(=O)[C@H](CCCCN)NC(=O)[C@H](CO)NC(=O)[C@H](Cc1ccc(O)cc1)NC(=O)[C@H](CC(=O)O)NC(=O)[C@H](CO)NC(=O)[C@@H](NC(=O)[C@H](Cc1ccccc1)NC(=O)[C@@H](NC(=O)CNC(=O)[C@H](CCC(N)=O)NC(=O)[C@@H](CO)NC(=O)[C@@H](N)Cc1c[nH]cn1)[C@@H](C)O)[C@@H](C)O)C(C)C)C(=O)N[C@@H](CC(=O)O)C(=O)NCC(=O)NCC(=O)N1CCC[C@H]1C(=O)N[C@@H](CO)C(=O)N[C@@H](CO)C(=O)NCC(=O)N[C@@H](C)C(=O)N1CCC[C@H]1C(=O)N1CCC[C@H]1C(=O)N1CCC[C@H]1C(=O)N[C@@H](CO)C(N)=O [compound 61] (H-H[dS]QGTFTSDYSKYLDEKRAKEFVCWLLDGGPSSGAPPPS-NH2; N-terminus assumed)
Activity at Glucagon Receptor % Relative Activity (glucagon receptor; Table 2B): 88% | Activity at GLP-1 Receptor % Relative Activity (GLP-1 receptor; Table 2B): 39%

Molecule: CCCCCCCCCCCCCCCC(=O)N[C@@H](CCC(=O)NCCCC[C@H](NC(=O)[C@H](CC(=O)O)NC(=O)[C@H](CO)NC(=O)[C@@H](NC(=O)[C@H](Cc1ccccc1)NC(=O)[C@@H](NC(=O)CNC(=O)[C@H](CCC(N)=O)NC(=O)[C@H](CO)NC(=O)C(C)(C)c1c[nH]cn1)[C@@H](C)O)[C@@H](C)O)C(=O)N[C@@H](CO)C(=O)N[C@@H](CCCCN)C(=O)N[C@@H](Cc1ccc(O)cc1)C(=O)N[C@@H](CC(C)C)C(=O)N[C@@H](CC(=O)O)C(=O)N[C@@H](CCC(=O)O)C(=O)N[C@@H](CCC(N)=O)C(=O)N[C@@H](C)C(=O)N[C@@H](C)C(=O)N[C@@H](CCCCN)C(=O)N[C@@H](CCC(=O)O)C(=O)N[C@@H](Cc1ccccc1)C(=O)N[C@H](C(=O)N[C@@H](CS)C(=O)N[C@@H](Cc1c[nH]c2ccccc12)C(=O)N[C@@H](CC(C)C)C(=O)N[C@@H](CC(C)C)C(=O)N[C@@H](CC(=O)O)C(=O)N[C@H](C(N)=O)[C@@H](C)O)[C@@H](C)CC)C(=O)O [compound 54] ({Isobutyryl(2-imidazol-4-yl)}-SQGTFTSDK([γGlu-Palmitoyl])SKYLDEQAAKEFICWLLDT-NH2)
EC50 (glucagon receptor; Activity at Glucagon Receptor EC50 [nM], Table 5): 107 pM | Activity at Glucagon Receptor % Relative Activity (glucagon receptor; Table 5): 35% | Activity at GLP-1 Receptor % Relative Activity (GLP-1 receptor; Table 5): 42%

Molecule: HSQGTFTSDYSKYLDERRAKEFVQWLMNT-NH2 [compound 68]
Activity at Glucagon Receptor % Relative Activity (glucagon receptor; Table 2B): 104% | Activity at GLP-1 Receptor % Relative Activity (GLP-1 receptor; Table 2B): 44%

Results, then the molecule that gave them:

EC50 (glucagon receptor; Activity at Glucagon Receptor EC50 [pM], Table 3A): 3 pM | Activity at Glucagon Receptor % Relative Activity (glucagon receptor; Table 3A): 1194% | EC50 (GLP-1 receptor; Activity at GLP-1 Receptor EC50 [pM], Table 3A): 0.006 nM | Activity at GLP-1 Receptor % Relative Activity (GLP-1 receptor; Table 3A): 384%
Molecule: CCCCCCCCCCCCCCCC(=O)N[C@@H](CCC(=O)N[C@@H](CCC(=O)NCCCC[C@H](NC(=O)[C@H](CC(=O)O)NC(=O)[C@H](CO)NC(=O)[C@@H](NC(=O)[C@H](Cc1ccccc1)NC(=O)[C@@H](NC(=O)CNC(=O)[C@H](CCC(N)=O)NC(=O)C(C)(C)NC(=O)[C@@H](N)Cc1c[nH]cn1)[C@@H](C)O)[C@@H](C)O)C(=O)N[C@@H](CO)C(=O)N[C@@H](CCCCN)C(=O)N[C@@H](Cc1ccc(O)cc1)C(=O)N[C@@H](CC(C)C)C(=O)N[C@@H](CCC(=O)O)C(=O)NC(C)(C)C(=O)N[C@@H](CCCNC(=N)N)C(=O)N[C@@H](C)C(=O)N[C@@H](C)C(=O)N[C@@H](CCC(N)=O)C(=O)N[C@@H](CC(=O)O)C(=O)N[C@@H](Cc1ccccc1)C(=O)N[C@H](C(=O)N[C@@H](CCC(N)=O)C(=O)N[C@@H](Cc1c[nH]c2ccccc12)C(=O)N[C@@H](CC(C)C)C(=O)N[C@@H](CCSC)C(=O)N[C@@H](CC(=O)O)C(=O)N[C@H](C(N)=O)[C@@H](C)O)C(C)C)C(=O)O)C(=O)O [compound 48] (H-H[Aib]QGTFTSDK([γGlu-γGlu-Palmitoyl])SKYLE[Aib]RAAQDFVQWLMDT-NH2; N-terminus assumed)

Activity at Glucagon Receptor % Relative Activity (glucagon receptor; Table 3C): 1500% | EC50 (GLP-1 receptor; [1]): 0.003 nM | Activity at GLP-1 Receptor % Relative Activity (GLP-1 receptor; Table 3C): 1200%
Molecule: CCCCCCCCCCCCCCCC(=O)N[C@@H](CCC(=O)NCCCC[C@H](NC(=O)[C@H](CC(=O)O)NC(=O)[C@H](CO)NC(=O)[C@@H](NC(=O)[C@H](Cc1ccccc1)NC(=O)[C@@H](NC(=O)CNC(=O)[C@H](CCC(N)=O)NC(=O)[C@@H](CO)NC(=O)[C@@H](N)Cc1c[nH]cn1)[C@@H](C)O)[C@@H](C)O)C(=O)N[C@@H](CO)C(=O)N[C@@H](CCCCN)C(=O)N[C@@H](Cc1ccc(O)cc1)C(=O)N[C@@H](CC(C)C)C(=O)N[C@@H](CC(=O)O)C(=O)N[C@@H](CCC(=O)O)C(=O)N[C@@H](CCC(N)=O)C(=O)N[C@@H](C)C(=O)N[C@@H](C)C(=O)N[C@@H](CCCCN)C(=O)N[C@@H](CCC(=O)O)C(=O)N[C@@H](Cc1ccccc1)C(=O)N[C@H](C(=O)N[C@@H](CS)C(=O)N[C@@H](Cc1c[nH]c2ccccc12)C(=O)N[C@@H](CC(C)C)C(=O)N[C@@H](CC(C)C)C(=O)N[C@@H](CC(=O)O)C(=O)N[C@H](C(=O)O)[C@@H](C)O)[C@@H](C)CC)C(=O)O [compound 76]

Activity at Glucagon Receptor % Relative Activity (glucagon receptor; Table 2B): 79% | EC50 (GLP-1 receptor; Activity at GLP-1 Receptor EC50 (nM), Table 2B): 0.012 nM | Activity at GLP-1 Receptor % Relative Activity (GLP-1 receptor; Table 2B): 308%
Molecule: CC(C)C[C@H](NC(=O)[C@H](Cc1c[nH]c2ccccc12)NC(=O)[C@H](CS)NC(=O)[C@@H](NC(=O)[C@H](Cc1ccccc1)NC(=O)[C@H](CCC(=O)O)NC(=O)[C@H](CCCCN)NC(=O)[C@H](C)NC(=O)[C@H](C)NC(=O)[C@H](CCCCN)NC(=O)C(C)(C)NC(=O)[C@H](CC(=O)O)NC(=O)[C@H](CC(C)C)NC(=O)[C@H](Cc1ccc(O)cc1)NC(=O)[C@H](CCCCN)NC(=O)[C@H](CO)NC(=O)[C@H](Cc1ccc(O)cc1)NC(=O)[C@H](CC(=O)O)NC(=O)[C@H](CO)NC(=O)[C@@H](NC(=O)[C@H](Cc1ccccc1)NC(=O)[C@@H](NC(=O)CNC(=O)[C@H](CCC(N)=O)NC(=O)C(C)(C)NC(=O)[C@@H](N)Cc1c[nH]cn1)[C@@H](C)O)[C@@H](C)O)C(C)C)C(=O)N[C@@H](CC(C)C)C(=O)N[C@@H](CC(=O)O)C(=O)N[C@H](C(N)=O)[C@@H](C)O [compound 64] (H-H[Aib]QGTFTSDYSKYLD[Aib]KAAKEFVCWLLDT-NH2; N-terminus assumed)
